Laboratory results: patent US11807644B2 (PMV Pharmaceuticals, Inc., priority 2020, dated 2023)

Each compound was assayed against T1, recombinant His-tag Y220C p53 DBD protein (Homo sapiens, UniProt P04637, Y220C) (assay: In vitro DNA binding activity assay (TR-FRET): binding of His-tag Y220C p53 DBD to biotin-labeled consensus DNA). Details: SC150 = concentration to increase DNA binding by […], His-tag Y220C p53 DBD, biotin-labeled consensus DNA.
T1 construct: recombinant His-tag Y220C p53 DBD protein (amino acids #˜94-312)
Type: biochemical

Row | Y220C SC150 (μM) | SMILES
1 | * (* = 0 μM ≤ SC150 < 0.1 μM) | COC(=O)c1ccc(C(=O)NCc2nnc(-c3cc4c(NC5CCN(C)CC5)cccc4n3CC(F)(F)F)s2)cc1 [Compound 39B, methyl 4-{[(5-{4-[(1-methylpiperidin-4-yl)amino]-1-(2,2,2-trifluoroethyl)-1H-indol-2-yl}-1,3,4-thiadiazol-2-yl)methyl]carbamoyl}benzoate]
2 | ** (** = 0.1 μM ≤ SC150 < 0.5 μM) | CN1CCC(Nc2cccc3c2cc(-c2nnc(CNC(=O)c4ccccn4)s2)n3CC(F)(F)F)CC1 [Compound 41B, N-[(5-{4-[(1-methylpiperidin-4-yl)amino]-1-(2,2,2-trifluoroethyl)-1H-indol-2-yl}-1,3,4-thiadiazol-2-yl)methyl]pyridine-2-carboxamide]
3 | ** (** = 0.1 μM ≤ SC150 < 0.5 μM) | CN1CCC(Nc2cccc3c2cc(-c2nnc(CNC(=O)c4cccnc4)s2)n3CC(F)(F)F)CC1 [Compound 42B, N-[(5-{4-[(1-methylpiperidin-4-yl)amino]-1-(2,2,2-trifluoroethyl)-1H-indol-2-yl}-1,3,4-thiadiazol-2-yl)methyl]pyridine-3-carboxamide]
4 | * (* = 0 μM ≤ SC150 < 0.1 μM) | CN1CCC(Nc2cccc3c2cc(-c2nnc(CNC(=O)c4ccc(CN5CCOCC5)cc4)s2)n3CC(F)(F)F)CC1 [Compound 45B, N-[(5-{4-[(1-methylpiperidin-4-yl)amino]-1-(2,2,2-trifluoroethyl)-1H-indol-2-yl}-1,3,4-thiadiazol-2-yl)methyl]-4-[(morpholin-4-yl)methyl]benzamide]
5 | * (* = 0 μM ≤ SC150 < 0.1 μM) | CN1CCC(Nc2cccc3c2cc(-c2nnc(CNC(=O)c4cccc(CN5CCOCC5)c4)s2)n3CC(F)(F)F)CC1 [Compound 46B, N-[(5-{4-[(1-methylpiperidin-4-yl)amino]-1-(2,2,2-trifluoroethyl)-1H-indol-2-yl}-1,3,4-thiadiazol-2-yl)methyl]-3-[(morpholin-4-yl)methyl]benzamide]
6 | * (* = 0 μM ≤ SC150 < 0.1 μM) | CN1CC[C@@H](Nc2cccc3c2cc(-c2nnc(CNC(=O)C4CC4)s2)n3CC(F)(F)F)[C@@H](F)C1 [Compound 47B, N-{[5-(4-{[(3S,4R)-3-fluoro-1-methylpiperidin-4-yl]amino}-1-(2,2,2-trifluoroethyl)-1H-indol-2-yl)-1,3,4-thiadiazol-2-yl]methyl}cyclopropanecarboxamide]
7 | * (* = 0 μM ≤ SC150 < 0.1 μM) | CN1CC[C@H](Nc2cccc3c2cc(-c2nnc(CNC(=O)C4CC4)s2)n3CC(F)(F)F)[C@H](F)C1 [Compound 48B, N-{[5-(4-{[(3R,4S)-3-fluoro-1-methylpiperidin-4-yl]amino}-1-(2,2,2-trifluoroethyl)-1H-indol-2-yl)-1,3,4-thiadiazol-2-yl]methyl}cyclopropanecarboxamide]
8 | ** (** = 0.1 μM ≤ SC150 < 0.5 μM) | CN1CCC(Nc2cccc3c2cc(-c2nnc(CNC(=O)c4ccncc4)s2)n3CC(F)(F)F)CC1 [Compound 49B, N-[(5-{4-[(1-methylpiperidin-4-yl)amino]-1-(2,2,2-trifluoroethyl)-1H-indol-2-yl}-1,3,4-thiadiazol-2-yl)methyl]pyridine-4-carboxamide]
9 | ** (** = 0.1 μM ≤ SC150 < 0.5 μM) | CN1CCC(Nc2cccc3c2cc(-c2nnc(CNC(=O)c4ccccc4F)s2)n3CC(F)(F)F)CC1 [Compound 50B, 2-fluoro-N-[(5-{4-[(1-methylpiperidin-4-yl)amino]-1-(2,2,2-trifluoroethyl)-1H-indol-2-yl}-1,3,4-thiadiazol-2-yl)methyl]benzamide]
10 | * (* = 0 μM ≤ SC150 < 0.1 μM) | CN1CCC(Nc2cccc3c2cc(-c2nnc(CNC(=O)c4cccc(F)c4)s2)n3CC(F)(F)F)CC1 [Compound 51B, 3-fluoro-N-[(5-{4-[(1-methylpiperidin-4-yl)amino]-1-(2,2,2-trifluoroethyl)-1H-indol-2-yl}-1,3,4-thiadiazol-2-yl)methyl]benzamide]
11 | * (* = 0 μM ≤ SC150 < 0.1 μM) | CN1CCC(Nc2cccc3c2cc(-c2nnc(CNC(=O)c4ccc(F)cc4)s2)n3CC(F)(F)F)CC1 [Compound 52B, 4-fluoro-N-[(5-{4-[(1-methylpiperidin-4-yl)amino]-1-(2,2,2-trifluoroethyl)-1H-indol-2-yl}-1,3,4-thiadiazol-2-yl)methyl]benzamide]
12 | ** (** = 0.1 μM ≤ SC150 < 0.5 μM) | CN1CCC(Nc2cccc3c2cc(-c2nnc(CNC(=O)c4ccc(C(=O)O)cc4)s2)n3CC(F)(F)F)CC1 [Compound 54B, 4-{[(5-{4-[(1-methylpiperidin-4-yl)amino]-1-(2,2,2-trifluoroethyl)-1H-indol-2-yl}-1,3,4-thiadiazol-2-yl)methyl]carbamoyl}benzoic acid]
13 | ** (** = 0.1 μM ≤ SC150 < 0.5 μM) | CN1CCC(Nc2cccc3c2cc(-c2nnc(CNC(=O)c4ccc5[nH]ncc5c4)s2)n3CC(F)(F)F)CC1 [Compound 55B, N-[(5-{4-[(1-methylpiperidin-4-yl)amino]-1-(2,2,2-trifluoroethyl)-1H-indol-2-yl}-1,3,4-thiadiazol-2-yl)methyl]-1H-indazole-5-carboxamide]
14 | ** (** = 0.1 μM ≤ SC150 < 0.5 μM) | CNC(=O)NCc1nnc(-c2cc3c(NC4CCN(C)CC4)cccc3n2CC(F)(F)F)s1 [Compound 56B, 3-methyl-1-[(5-{4-[(1-methylpiperidin-4-yl)amino]-1-(2,2,2-trifluoroethyl)-1H-indol-2-yl}-1,3,4-thiadiazol-2-yl)methyl]urea]
15 | ** (** = 0.1 μM ≤ SC150 < 0.5 μM) | CC(C)C(=O)NCc1nnc(-c2cc3c(NC4CCN(C)CC4)cccc3n2CC(F)(F)F)s1 [Compound 57B, 2-methyl-N-[(5-{4-[(1-methylpiperidin-4-yl)amino]-1-(2,2,2-trifluoroethyl)-1H-indol-2-yl}-1,3,4-thiadiazol-2-yl)methyl]propanamide]
16 | ** (** = 0.1 μM ≤ SC150 < 0.5 μM) | CC(=O)NCc1nnc(-c2cc3c(NC4CCN(C)CC4)cccc3n2CC(F)(F)F)s1 [Compound 58B, N-[(5-{4-[(1-methylpiperidin-4-yl)amino]-1-(2,2,2-trifluoroethyl)-1H-indol-2-yl}-1,3,4-thiadiazol-2-yl)methyl]acetamide]
17 | ** (** = 0.1 μM ≤ SC150 < 0.5 μM) | CN1CCC(Nc2cccc3c2cc(-c2nnc(CNC(=O)Cc4ccccc4)s2)n3CC(F)(F)F)CC1 [Compound 59B, N-[(5-{4-[(1-methylpiperidin-4-yl)amino]-1-(2,2,2-trifluoroethyl)-1H-indol-2-yl}-1,3,4-thiadiazol-2-yl)methyl]-2-phenylacetamide]
18 | ** (** = 0.1 μM ≤ SC150 < 0.5 μM) | COCC(=O)NCc1nnc(-c2cc3c(NC4CCN(C)CC4)cccc3n2CC(F)(F)F)s1 [Compound 60B, 2-methoxy-N-[(5-{4-[(1-methylpiperidin-4-yl)amino]-1-(2,2,2-trifluoroethyl)-1H-indol-2-yl}-1,3,4-thiadiazol-2-yl)methyl]acetamide]
19 | * (* = 0 μM ≤ SC150 < 0.1 μM) | COc1cc(S(C)(=O)=O)ccc1NCc1nnc(-c2cc3c(N[C@H]4CCN(C)C[C@H]4F)cccc3n2CC(F)(F)F)s1 [Compound 61B, N-[(3R,4S)-3-fluoro-1-methylpiperidin-4-yl]-2-(5-{[(4-methanesulfonyl-2-methoxyphenyl)amino]methyl}-1,3,4-thiadiazol-2-yl)-1-(2,2,2-trifluoroethyl)-1H-indol-4-amine]

Same assay, conditions: concentration to increase DNA binding by […], incubated at either 27° C. or 29° C. for 60 min

Row | SC150 (μM) | SMILES
20 | +++ (+++ = 5 μM ≤ SC150 < 10 μM) | CN1CCC(Nc2cccc3c2cc(-c2ccc(C(N)c4ccccc4)cc2)n3CC(F)(F)F)CC1 (stereo not drawn) [Compound 38A, 2-{4-[amino(phenyl)methyl]phenyl}-N-(1-methylpiperidin-4-yl)-1-(2,2,2-trifluoroethyl)-1H-indol-4-amine]
21 | ++++ (++++ = 10 μM ≤ SC150 < 35 μM) | CN1CCC(Nc2cccc3c2cc(-c2ccc(CNC4CCCC4)cc2)n3CC(F)(F)F)CC1 [Compound 40A, 2-{4-[(cyclopentylamino)methyl]phenyl}-N-(1-methylpiperidin-4-yl)-1-(2,2,2-trifluoroethyl)-1H-indol-4-amine]
22 | ++ (++ = 2 μM ≤ SC150 < 5 μM) | CC(Nc1ccc(S(C)(=O)=O)cc1)c1ccc(-c2cc3c(NC4CCN(C)CC4)cccc3n2CC(F)(F)F)cc1 (stereo not drawn) [Compound 41A, 2-(4-{1-[(4-methanesulfonylphenyl)amino]ethyl}phenyl)-N-(1-methylpiperidin-4-yl)-1-(2,2,2-trifluoroethyl)-1H-indol-4-amine]
23 | + (+ = 0 μM ≤ SC150 < 2 μM) | CN1CC[C@H](Nc2cccc3c2cc(-c2ccc(CNc4ccc(S(C)(=O)=O)cc4)cc2)n3CC(F)(F)F)[C@H](F)C1 [Compound 44A, N-[(3R,4S)-3-fluoro-1-methylpiperidin-4-yl]-2-(4-{[(4-methanesulfonylphenyl)amino]methyl}phenyl)-1-(2,2,2-trifluoroethyl)-1H-indol-4-amine]
24 | +++ (+++ = 5 μM ≤ SC150 < 10 μM) | COCC(O)CN1CCC(Nc2cccc3c2cc(-c2ccc4c(C)[nH]nc4c2)n3CC(F)(F)F)CC1 (stereo not drawn) [Compound 47A, 1-methoxy-3-(4-{[2-(3-methyl-2H-indazol-6-yl)-1-(2,2,2-trifluoroethyl)-1H-indol-4-yl]amino}piperidin-1-yl)propan-2-ol]
25 | +++ (+++ = 5 μM ≤ SC150 < 10 μM) | COCC(O)CN1CCC(Nc2cccc3c2cc(-c2ccc4c[nH]nc4c2)n3CC(F)(F)F)CC1 (stereo not drawn) [Compound 48A, 1-(4-{[2-(2H-indazol-6-yl)-1-(2,2,2-trifluoroethyl)-1H-indol-4-yl]amino}piperidin-1-yl)-3-methoxypropan-2-ol]
26 | ++ (++ = 2 μM ≤ SC150 < 5 μM) | COCC(O)CN1CCC(Nc2cccc3c2cc(-c2ccc4c(c2)NC(=O)C4)n3CC(F)(F)F)CC1 (stereo not drawn) [Compound 49A, 4-{[1-(2-hydroxy-3-methoxypropyl)piperidin-4-yl]amino}-1-(2,2,2-trifluoroethyl)-2′,3′-dihydro-1H,1′H-[2,6′-biindol]-2′-one]
27 | ++++ (++++ = 10 μM ≤ SC150 < 35 μM) | COCC(O)CN1CCC(Nc2cccc3c2cc(-c2cccc(NC(C)=O)c2)n3CC(F)(F)F)CC1 (stereo not drawn) [Compound 51A, N-[3-(4-{[1-(2-hydroxy-3-methoxypropyl)piperidin-4-yl]amino}-1-(2,2,2-trifluoroethyl)-1H-indol-2-yl)phenyl]acetamide]
